Measured values reported in patent US4667019A, “Azo dyes containing a triazolyl group for use in liquid crystalline materials” (Kernforschungszentrum Karlsruhe GmbH, priority 1986, dated 1987).

What was measured:
Type in all cases: physicochemical
[1] = degree of order S (dichroic ratio CR) in ZLI 1840 at room temperature; set-up: key: S = (CR-1)/(CR+2), with CR = E∥/E⊥ dichroic ratio; conditions: ZLI 1840 wide-range mixture (Merck)
Protocol: (§1) The degrees of order S and the solubilities L, both measured at room temperature in the ZLI 1840 wide-range mixture from Merck, are summarized in Table 1 for Examples 1-18. The degrees of order S and the solubilities L for Examples 19-32, measured at room temperature in the […] liquid crystal mixture from Merck, are summarized in Table 3.
(§2) The degree of order S was determined in accordance with the known equation S=(CR-1)/(CR+2), using commercial measuring cells with homogeneous edge orientation. The dichroic ratio CR was determined by measuring the extinctions E^.parallel. (measured using polarized light parallel to the preferred direction of the nematic phase) and E^.perp. (measured using polarized light perpendicular to the preferred direction of the nematic phase) and using the relationship CR=E^.parallel. /E^.perp. the dye concentration being chosen so that E^.parallel. was from 1 to 2. The measurements were carried out using a Beckman Acta CIII spectrophotometer.

[2] = solubility L in ZLI 1840 at room temperature; conditions: ZLI 1840 (Merck), stirred 1 week
Protocol: as §1
(§3) The solubility was determined as follows: 50 mg of the particular dye were stirred into 1 ml of ZLI 1840 at room temperature for 1 week, and saturation of the soluton was determined by comparing extinction values.

[3] = light-stability, high-speed exposure of the measuring cell in a Suntest; conditions: 25° C
Protocol: The light-stability was determined by high-speed exposure of the measuring cell in a Suntest from Hanau, at 25° C. In this procedure, the decrease in E^.parallel. was measured. The initial extinction E^.parallel. and the exposure time E^.parallel.80% after which E^.parallel. has decreased to 80% are shown in Table 2 for Examples 5, 8, 9, 10, 11, 12, 13, 14 and 15. The percentage change in E^.parallel.0 is plotted against the exposure time in FIGS. 2, 3 and 4 for Examples 8, 11 and 15.

[4] = degree of order S (dichroic ratio CR) in ZLI 1957/5 at room temperature; conditions: ZLI 1957/5 liquid crystal mixture (Merck)
Protocol: as §1, §2

[5] = solubility L in ZLI 1957/5 at room temperature; conditions: ZLI 1957/5 liquid crystal mixture (Merck)
Protocol: as §1, §3

| Structure (SMILES) | Degree of order S [1] | Solubility L [2] | exposure time E∥80% after which E∥ has decreased to 80% [3] | Degree of order S [4] | Solubility L [5] |
| --- | --- | --- | --- | --- | --- |
| Cc1nn(-c2ccc(N=Nc3ccc(N4CCOCC4)cc3)cc2)nc1C [Example 1] | 0,64 | – | – | – | – |
| CN(C)c1ccc(N=Nc2ccc(-n3nc4c(n3)CCCC4)cc2)cc1 [Example 2] | 0,71 | 1,4% | – | – | – |
| Cc1nn(-c2ccc(N=Nc3ccc(N=Nc4ccc(N(C)C)cc4)cc3)cc2)nc1C [Example 3] | 0,74 | 0,4% | – | – | – |
| COc1cc(N=Nc2ccc(N(C)C)cc2)ccc1N=Nc1ccc(-n2nc(C)c(C)n2)cc1 [Example 4] | 0,70 | 0,7% | – | – | – |
| CCOC(=O)c1nn(-c2ccc(N=Nc3cc(C)c(N=Nc4ccc(N(C)C)cc4)cc3C)cc2)nc1C [Example 5] | 0,73 | 0,2% | 101 h | – | – |
| Cc1nn(-c2cc(Br)c(N=Nc3ccc(N=Nc4ccc(N(C)C)cc4)cc3)c(Br)c2)nc1C [Example 6] | 0,61 | 1,8% | – | – | – |
| Cc1nn(-c2cc(C#N)c(N=Nc3ccc(N=Nc4ccc(N(C)C)cc4)cc3)c(C#N)c2)nc1C [Example 7] | 0,74 | < 0,1% | – | – | – |
| CCOC(=O)c1nn(-c2ccc(N=Nc3ccc(N=Nc4ccc(N(C)C)cc4)c4ccccc34)cc2)nc1C [Example 8] | 0,74 | 0,5% | 27,5 h | – | – |
| Cc1ccc2nn(-c3cc(C)c(N=Nc4cc(C)c(N=Nc5ccc(N(C)C)cc5)cc4C)cc3C)nc2c1 [Example 9] | 0,76 | 0,5% | 111 h | – | – |
| Cc1ccc2nn(-c3ccc(N=Nc4cc(C)c(N=Nc5ccc(N(C)C)cc5)cc4C)cc3)nc2c1 [Example 10] | 0,73 | 0,6% | 147 h | – | – |
| Cc1ccc2nn(-c3ccc(N=Nc4ccc(N=Nc5ccc(N)cc5C)cc4C)cc3C)nc2c1 [Example 11] | – | – | 170 h | – | – |
| CCCCN(CCCC)c1ccc(N=Nc2ccc(N=Nc3ccc(-n4nc5ccc(C)cc5n4)c(C)c3)c(C)c2)cc1 [Example 13] | 0,74 | > 5% | 97 h | – | – |
| CCCCc1ccc2nn(-c3ccc(N=Nc4cc(C)c(N=Nc5ccc(N(C)C)cc5)cc4C)cc3C)nc2c1 [Example 14] | 0,76 | > 2,3% | 111 h | – | – |
| CCCCc1ccc2nn(-c3ccc(N=Nc4ccc(N=Nc5ccc(N(C)C)cc5)cc4C)cc3C)nc2c1 [Example 15] | 0,79 | 2,8% | 68 h | – | – |
| CCCCOc1ccc(N=Nc2ccc(N=Nc3ccc(-n4nc5ccc(C)cc5n4)c(C)c3)c(C)c2)c(C)c1 [Example 16] | 0,74 | 0,5% | – | – | – |
| Cc1ccc2nn(-c3ccc(N=Nc4cc(C)c(N=Nc5ccc(OCc6ccccc6)cc5C)cc4C)cc3C)nc2c1 [Example 17] | 0,74 | 0,6% | – | – | – |

| Structure (SMILES) | Degree of order S [1] | Solubility L [2] | exposure time E∥80% after which E∥ has decreased to 80% [3] | Degree of order S [4] | Solubility L [5] |
| --- | --- | --- | --- | --- | --- |
| CCC1CCC(c2ccc(COc3ccc(N=Nc4cc(C)c(N=Nc5ccc(-n6nc7ccc(C)cc7n6)c(C)c5)cc4C)c(C)c3)cc2)CC1 (stereo not shown) [Example 18] | 0,77 | 2,9% | – | – | – |
| CCCCOC(=O)c1ccc2nn(-c3ccc(N=Nc4cc(C)c(N=Nc5ccc(N(C)C)cc5)cc4C)cc3C)nc2c1 [Example 19] | 0,76 | 0,3% | – | – | – |
| CCCCN(C)c1ccc(N=Nc2cc(C)c(N=Nc3ccc(-n4nc5ccc(C)cc5n4)c(C)c3)cc2C)cc1 [Example 20] | – | – | – | 0,74 | 2,0% |
| Cc1ccc2nn(-c3ccc(N=Nc4ccc(N=Nc5ccc(N(C)C)cc5)cc4C)cc3C)nc2c1 [Example 21] | 0,76 | 2,8% | – | – | – |
| CCCCNc1ccc(N=Nc2ccc(N=Nc3ccc(-n4nc5ccc(C)cc5n4)c(C)c3)c(C)c2)cc1 [Example 22] | 0,77 | > 5% | – | – | – |
| Cc1ccc2nn(-c3ccc(N=Nc4ccc(N=Nc5ccc(NCc6ccccc6)cc5)cc4C)cc3C)nc2c1 [Example 23] | 0,79 | 1,9% | – | – | – |
| CCCCN(C)c1ccc(N=Nc2ccc(N=Nc3ccc(-n4nc5ccc(C)cc5n4)c(C)c3)c(C)c2)cc1 [Example 24] | 0,77 | > 5% | – | – | – |
| Cc1ccc2nn(-c3ccc(N=Nc4ccc(N=Nc5ccc(N(C)Cc6ccccc6)cc5)cc4C)cc3C)nc2c1 [Example 25] | 0,76 | 1,9% | – | – | – |
| Cc1ccc2nn(-c3ccc(N=Nc4ccc(N=Nc5ccc(N(C)C)cc5C)cc4C)cc3C)nc2c1 [Example 26] | 0,76 | 2,0% | – | – | – |
| CCCCc1ccc2nn(-c3ccc(N=Nc4ccc(N=Nc5ccc(N(C)C)cc5C)cc4C)cc3C)nc2c1 [Example 27] | 0,75 | 3,9% | – | – | – |
| Cc1ccc2nn(-c3ccc(N=Nc4ccc(N=Nc5ccc(N(C)CC(C)C)cc5C)cc4C)cc3C)nc2c1 [Example 28] | – | – | – | 0,72 | 1,5% |
| CCCCN(C)c1ccc(N=Nc2cc(C)c(N=Nc3ccc(-n4nc5ccc(C)cc5n4)c(C)c3)cc2OC)cc1 [Example 29] | – | – | – | 0,71 | 0,5% |
| CCCCN(C)c1ccc(N=Nc2cc(OC)c(N=Nc3ccc(-n4nc5ccc(C)cc5n4)c(C)c3)cc2OC)cc1 [Example 30] | – | – | – | 0,67 | 0,3% |
| CCCCc1ccc2nn(-c3ccc(N=Nc4cc(C)c(N=Nc5ccc(NC)c6ccccc56)cc4C)cc3C)nc2c1 [Example 31] | 0,70 | 2,0% | – | – | – |
| CCCCc1ccc2nn(-c3ccc(N=Nc4cc(C)c(N=Nc5ccc(N(C)C)c6ccccc56)cc4C)cc3C)nc2c1 [Example 32] | 0,65 | 0,1% | – | – | – |
